Data reported in PMC5049494, “Nitrotriazole-based acetamides and propanamides with broad spectrum antitrypanosomal activity” (European Journal of Medicinal Chemistry, 2016).
Where two headings read alike, the source gives them in different places.

What was measured:
[1] = test system: transgenic T. cruzi parasites expressing firefly luciferase; assay type: in vivo, Balb/c mice; settings: for parasite load after 10 days of treatment: acute murine model, p < 0.0001; for parasitic level after 5-day treatment: compared to untreated control
Protocol: A fast luminescence assay was used in an acute infected murine model, in which transgenic T. cruzi parasites expressing firefly luciferase were injected in 5 week-old Balb/c mice. Mice were injected with D-luciferin before imaging. Groups of 5 mice/group were treated i.p. for 10 consecutive days with each compound, at 13 or 15 mg/kg/day. […] The mean ratio of parasite levels was calculated after 5 and 10 days of treatment.
For in vivo studies, a Brazilian strain trypomastigotes from transgenic T. cruzi parasites expressing firefly luciferase were used as described before. Briefly, parasites (10^5 trypomastigotes) were injected in 5 week-old Balb/c mice (Taconic) and three days later mice were anesthesized by inhalation of isofluorane, followed by an injection with 150 mg/kg of D-luciferin potassium-salt in PBS. Mice were imaged 5–10 min after injection of luciferin with an IVIS 100 (Xenogen, Alameda, CA) and the data acquisition and analysis were performed with the software LivingImage (Xenogen) as described before. Treatment with test compounds started 4 days post infection at 13 or 15 mg/kg/day × 10 days, given i.p. The vehicle control was 2% methylcellulose +0.5% Tween 80 and groups of 5 mice/group were used. Mice were imaged after 5 and 10 days of treatment. The ratio of parasite levels was calculated for each animal dividing the luciferase signal after treatment by the luciferase signal on the first imaging (before treatment). Mean values of all animals in each group ± SD were used for plotting.

[2] = test system: L. donovani axenic, strain MHOM-ET-67/L82 amastigotes; design: method as in PMID 26344593, PMID 25580906; settings: cited from earlier work; for IC50: previously evaluated compounds (orange, designated a), read-out: L.d. IC50; for SI (L.d.): IC50 L6/IC50 parasite, previously evaluated compounds
[3] = test system: T.b. rhodesiense, strain STIB 900 trypomastigotes; test: In vitro activity against T. b. rhodesiense; assay type: cell-based; settings: for SI (T.b.r.): IC50 in L6 cells/IC50 in T.b. rhodesiense; for anti-HAT activity class (TDR criteria): T. b. rhodesiense; for IC50: Trypanosoma brucei, read-out: T.b.r. IC50; for fold more potent against T. b. rhodesiense than the corresponding acetamide: propanamide vs acetamide analog
Protocol: (§1) Compounds in Table 1 were screened for anti-parasitic activity against three trypanosomatids: T. cruzi, T. b. rhodesiense and Leishmania donovani and compared with previously made analogs shown in orange and designated with a. […] In addition, compounds were tested for toxicity in L6 rat skeletal myoblasts, the host cells for T. cruzi amastigotes, in order to calculate a selectivity index for each parasite [SI = IC50L6/IC50parasite] (Table 1). The TDR (Special Programme for Research and Training in Tropical Diseases, World Health Organization) criteria were adopted to interpret antiparasitic activity and selectivity.
(§2) In vitro activity against T. cruzi, T. b. rhodesiense, L. donovani and cytotoxicity assessment using L6 cells (rat skeletal myoblasts) was determined using a 96-well plate format as previously described. Data were analyzed with the graphic program Softmax Pro (Molecular Devices, Sunnyvale, CA, USA), which calculated IC50 values by linear regression from the sigmoidal dose inhibition curves.

[4] = test system: T. cruzi, strain Tulahuen C4 amastigotes; settings: cited from earlier work; for IC50: previously evaluated compounds (orange, designated a), read-out: T. c. IC50; for SI (T. c.): IC50 L6/IC50 parasite; for SI (T. c.) / Bnz/comp: previously evaluated compounds; for Bnz/comp: fold potency relative to Bnz
[5] = test system: T.b. rhodesiense, strain STIB 900 trypomastigotes; design: method as in PMID 26344593, PMID 25580906; settings: cited from earlier work; for anti-HAT activity class (TDR criteria): T. b. rhodesiense, previously evaluated acetamides; for IC50: previously evaluated compounds (orange, designated a), read-out: T.b.r. IC50
[6] = Cytotoxicity in the host L6 cells; assay type: cell-based, rat; settings: rat, L6 cells (rat skeletal myoblasts); cytotoxicity in host L6 cells; read-out: Cyt. L6 IC50
Protocol: as §1, §2

[7] = test system: L. donovani axenic, strain MHOM-ET-67/L82 amastigotes; test: In vitro activity against L. donovani; assay type: cell-based; settings: for SI (L.d.): IC50 in L6 cells/IC50 in L. donovani; for IC50: Leishmania donovani, L. donovani axenic amastigotes MHOM-ET-67/L82, means of 2 to 3 measurements, SD < 5%, read-out: L.d. IC50
Protocol: (§3) The concentration of compound that inhibits parasite growth by 50% (IC50) was calculated from dose response curves for each parasite (Table 1). In addition, compounds were tested for toxicity in L6 rat skeletal myoblasts, the host cells for T. cruzi amastigotes, in order to calculate a selectivity index for each parasite [SI = IC50L6/IC50parasite]
(§4) In vitro activity against T. cruzi, T. b. rhodesiense, L. donovani and cytotoxicity assessment using L6 cells (rat skeletal myoblasts) was determined using a 96-well plate format as previously described [37]. Data were analyzed with the graphic program Softmax Pro (Molecular Devices, Sunnyvale, CA, USA), which calculated IC50 values by linear regression from the sigmoidal dose inhibition curves.

[8] = test system: T. cruzi, strain Tulahuen C4 amastigotes; test: In vitro activity against T. cruzi; assay type: cell-based; settings: for IC50: Trypanosoma cruzi, T. cruzi Tulahuen C4 amastigotes, means of 2 to 3 measurements, SD < 5%, read-out: T. c. IC50; for Bnz/comp: fold antichagasic potency relative to Bnz (T. cruzi IC50 ratio); for SI (T. c.): IC50 in L6 cells/IC50 in T. cruzi
Protocol: as §3, §4

[9] = test system: L6 cells (rat skeletal myoblasts); design: method as in PMID 26344593, PMID 25580906; settings: previously evaluated compounds (orange, designated a); read-out: Cyt. L6 IC50; cited from earlier work
[10] = test system: bloodstream form T.b. brucei recombinant parasites expressing wild type (-tet) or elevated (+tet) levels of TbNTR; test: microbe, parasite or virus in culture; assay type: cell-based; settings: for IC50: Trypanosoma brucei; for Ratio –tet/+tet: ratio of IC50 values -tet/+tet
Protocol: The BSF of T. brucei parasites were seeded at 1 × 10^3 mL^−1 in 200 μL of growth medium containing different concentrations of nitroheterocycle. Where appropriate, induction of the TbNTR was carried out by adding tetracycline (1 μg/mL). After incubation for 3 days at 37 °C, 20 μL of Alamar blue was added to each well and the plates incubated for a further 16 h. The cell density of each culture was determined as described before [20] and the IC50 established.

[11] = test system: bloodstream form T.b. brucei wild type; test: T. brucei antiproliferating assay, wild type; assay type: cell-based; settings: means from 4 experiments ± SD
Protocol: The BSF of T. brucei parasites were seeded at 1 × 10^3 mL^−1 in 200 μL of growth medium containing different concentrations of nitroheterocycle. Where appropriate, induction of the TbNTR was carried out by adding tetracycline (1 μg/mL). After incubation for 3 days at 37 °C, 20 μL of Alamar blue was added to each well and the plates incubated for a further 16 h. The cell density of each culture was determined as described before and the IC50 established.

[12] = T.b. rhodesiense STIB 900 trypomastigotes, means of 2 to 3 measurements, SD < 5%
[13] = read-out: IC50 value T.b. brucei TbNTR (+tet)
[14] = read-out: IC50 value T.b. brucei TbNTR (-tet)
[15] = Trypanosoma brucei, read-out: IC50 value T.b. brucei Wild type, bloodstream form

## O=C(Cn1ccnc1[N+](=O)[O-])NCc1ccccc1 [Bnz, Benznidazole, reference compound]
[1]; 15 mg/kg/day i.p. x 10 days
  parasite load after 10 days of treatment: undetectable levels
[1]; 15 mg/kg/day i.p.
  parasitic level after 5-day treatment: Statistically significant reduction in parasitic level

## O=C(Cn1cnc([N+](=O)[O-])n1)NCc1ccc(C(F)(F)F)cc1 [Compound 2a]
[2]
  IC50: 10400 nM
[3]; compared with N-methyl acetamide 2
  fold more potent against T. b. rhodesiense than 2: 5.8 fold
[4]
  IC50: 970 nM
[5]
  anti-HAT activity class (TDR criteria): inactive
  IC50: 6470 nM

## CN(C(=O)Cn1ccnc1[N+](=O)[O-])c1ccc(C(F)(F)F)cc1 [Compound 3, N-methyl-2-(2-nitro-1H-imidazol-1-yl)-N-(4-(trifluoromethyl)phenyl)acetamide]
[6]
  IC50: 189000 nM
[7]
  SI (L.d.): 3.96
  IC50: 47700 nM
[8]; T. cruzi
  antichagasic activity class (TDR criteria): moderately active (IC50 between 4.0 and 60 μM)
[8]
  IC50: 49400 nM
[3]
  SI (T.b.r.): 1.9
  anti-HAT activity class (TDR criteria): inactive
[3]; [12]
  IC50: 97700 nM
other
  melting point: 45 to 47 °C

## O=C(Cn1cnc([N+](=O)[O-])n1)Nc1ccc(Oc2ccc(Cl)cc2)cc1 [Compound 6a]
[2]
  SI (L.d.): 853
  IC50: 34 nM
[4]
  SI (T. c.): 3615
  Bnz/comp: 254
[5]
  IC50: 1330 nM
[9]
  IC50: 28900 nM

## O=C(CCn1cnc([N+](=O)[O-])n1)Nc1ccc(Oc2ccc(F)cc2)cc1 [Compound 7, N-(4-(4-fluorophenoxy)phenyl)-3-(3-nitro-1H-1,2,4-triazol-1-yl)propanamide]
[6]
  IC50: 23400 nM
[7]
  IC50: 1180 nM
[10]; [13]
  IC50: 330 ± 30 nM
[10]; [14]
  IC50: 680 ± 70 nM
[8]
  IC50: 40 nM
  Bnz/comp: 55
[3]; [12]
  IC50: 167 nM
[11]; [15]
  IC50: ~650 nM
[11]; read-out: IC50 value T.b. brucei Wild type, bloodstream form
  IC50: 570 ± 50 nM
[1]; 13 mg/kg/day i.p. x 10 days
  toxicity symptoms in treated mice: No toxicity symptoms were observed
  parasite load after 10 days of treatment: undetectable levels
[1]; 13 mg/kg/day i.p.
  parasitic level after 5-day treatment: Statistically significant reduction in parasitic level

## O=C(Cn1cnc([N+](=O)[O-])n1)Nc1ccc(Oc2ccc(F)cc2)cc1 [Compound 7a]
[2]
  SI (L.d.): 384
  IC50: 183 nM
[4]
  SI (T. c.): 1954
  Bnz/comp: 56
  IC50: 36 nM
[5]
  IC50: 2000 nM
[9]
  IC50: 70400 nM

## O=C(CCn1cnc([N+](=O)[O-])n1)Nc1ccc(Oc2ccccc2)cc1 [Compound 8, 3-(3-Nitro-1H-1,2,4-triazol-1-yl)-N-(4-phenoxyphenyl)propanamide]
[6]
  IC50: 31600 nM
[7]
  IC50: 2330 nM
[10]; [13]
  IC50: 410 ± 10 nM
[10]; [14]
  IC50: 1470 ± 30 nM
[8]
  SI (T. c.): 398
  IC50: 79 nM
  Bnz/comp: 28
[3]
  SI (T.b.r.): 203
  fold more potent against T. b. rhodesiense than the corresponding acetamide: 17.4 fold
[3]; [12]
  IC50: 156 nM
[11]; [15]
  IC50: 140 ± 10 nM
other
  melting point: 108 to 110 °C

## O=C(Cn1cnc([N+](=O)[O-])n1)Nc1ccc(Oc2ccccc2)cc1 [Compound 8a]
[2]
  SI (L.d.): 339
  IC50: 271 nM
[4]
  SI (T. c.): 1416
  Bnz/comp: 31
  IC50: 65 nM
[5]
  IC50: 2720 nM
[9]
  IC50: 92000 nM

## O=C(CCn1cnc([N+](=O)[O-])n1)Nc1cccc(-c2ccccc2)c1 [Compound 10, N-([1,1′-biphenyl]-3-yl)-3-(3-nitro-1H-1,2,4-triazol-1-yl)propanamide]
[6]
  IC50: 36200 nM
[7]
  SI (L.d.): 10.2
  IC50: 3550 nM
[10]; [13]
  IC50: 230 ± 20 nM
[10]; [14]
  IC50: 5580 ± 620 nM
[8]
  SI (T. c.): 452
  IC50: 80 nM
  Bnz/comp: 28
[8]; propanamide vs acetamide analog
  fold more potent against T. cruzi than the acetamide analog: 2.2 fold
[3]
  SI (T.b.r.): 134
  fold more potent against T. b. rhodesiense than the corresponding acetamide: 214 fold
[3]; [12]
  IC50: 270 nM
[11]; [15]
  IC50: 6660 ± 920 nM
other
  melting point: 174 to 176 °C

## O=C(Cn1cnc([N+](=O)[O-])n1)Nc1cccc(-c2ccccc2)c1 [Compound 10a]
[9]
  IC50: 45300 nM

## O=C(Cn1cnc([N+](=O)[O-])n1)Nc1cccc(OCc2ccccc2)c1 [Compound 11a]
[2]
  IC50: 3360 nM
[4]
  Bnz/comp: 17
[5]
  anti-HAT activity class (TDR criteria): moderately active (IC50 between 0.5 and 6.0 μM)
  IC50: 4860 nM
[9]
  IC50: 68400 nM

## O=C(CCn1cnc([N+](=O)[O-])n1)Nc1cc(-c2ccc(F)cc2)on1 [Compound 12, N-(5-(4-fluorophenyl)isoxazol-3-yl)-3-(3-nitro-1H-1,2,4-triazol-1-yl)propanamide]
[6]
  IC50: > 289000 nM
[7]
  SI (L.d.): >37
  IC50: 7790 nM
[7]; L. donovani
  antileishmanial activity class (TDR criteria): inactive
[10]; [13]
  IC50: 400 nM
[10]; [14]
  IC50: 1610 ± 100 nM
[10]
  Ratio –tet/+tet: 4.1
[8]
  SI (T. c.): >794
  IC50: 364 nM
  Bnz/comp: 6
[3]
  SI (T.b.r.): >201
  anti-HAT activity class (TDR criteria): moderately active (IC50 between 0.5 and 6.0 μM)
  fold more potent against T. b. rhodesiense than the corresponding acetamide: 5.6 fold
[3]; [12]
  IC50: 1440 nM
[11]; [15]
  IC50: 760 ± 100 nM
other
  melting point: 215 °C (dec.)

## Nc1nc(N)nc(Nc2ccc([As]3SCC(CO)S3)cc2)n1 (centres unmarked) [Melars., Melarsoprol, reference compound]
[3]
  IC50: 9 ± 1 nM

## CC1CS(=O)(=O)CCN1/N=C/c1ccc([N+](=O)[O-])o1 (centres unmarked) [nfx, Nifurtimox, reference compound]
[10]; [13]
  IC50: 869 ± 46 nM
[10]; [14]
  IC50: 6360 ± 119 nM
[10]
  Ratio –tet/+tet: 7.3
[11]; Trypanosoma brucei, bloodstream form, read-out: IC50 value T.b. brucei Wild type
  IC50: 3980 ± 150 nM
